Assay results as given in ChEMBL document CHEMBL1127261, “3-Substituted 6-butyl-1,2-dihydropyridin-2-ones: A new series of potent nonpeptide angiotensin II receptor antagonists” (Bioorg Med Chem Lett, 1994).
pIC50: −log10 of the molar value.

Columns and labels:
[1] = target: T1, Angiotensin II receptor (AT-1) type-1 (Rattus norvegicus, UniProt P29089+P25095); assay: In vitro binding affinity to angiotensin II receptor, type 1 in rat adrenal cortex preparation; format: tissue-based
T1 sequence (P29089 whole entry): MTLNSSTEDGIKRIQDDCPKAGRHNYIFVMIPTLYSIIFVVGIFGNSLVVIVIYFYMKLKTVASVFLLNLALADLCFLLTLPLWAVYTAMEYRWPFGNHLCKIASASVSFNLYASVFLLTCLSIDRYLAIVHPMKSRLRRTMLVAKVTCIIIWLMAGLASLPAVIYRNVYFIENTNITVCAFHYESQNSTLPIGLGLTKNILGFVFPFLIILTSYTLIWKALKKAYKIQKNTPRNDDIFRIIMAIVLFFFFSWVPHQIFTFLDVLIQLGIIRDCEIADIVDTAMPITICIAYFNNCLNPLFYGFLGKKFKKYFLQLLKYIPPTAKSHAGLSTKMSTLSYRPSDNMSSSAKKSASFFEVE
T1 sequence (P25095 whole entry): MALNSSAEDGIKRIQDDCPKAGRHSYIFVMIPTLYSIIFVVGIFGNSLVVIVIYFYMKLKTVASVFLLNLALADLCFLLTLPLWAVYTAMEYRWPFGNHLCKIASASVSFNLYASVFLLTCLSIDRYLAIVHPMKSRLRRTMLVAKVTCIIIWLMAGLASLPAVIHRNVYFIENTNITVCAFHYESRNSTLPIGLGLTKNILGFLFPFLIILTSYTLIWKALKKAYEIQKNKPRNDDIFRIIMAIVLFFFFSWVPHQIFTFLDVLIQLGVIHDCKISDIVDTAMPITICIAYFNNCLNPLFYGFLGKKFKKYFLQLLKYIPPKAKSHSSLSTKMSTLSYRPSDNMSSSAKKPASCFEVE

Rattus norvegicus = assay: In vivo percent inhibition of AII induced increase in diastolic blood pressure in pithed rats at a dose of 3 mg/kg, i.d.; format: functional; conditions: Artery, route intraduodenal
Oryctolagus cuniculus = species: Oryctolagus cuniculus; assay: In vitro functional antagonism in isolated rabbit aortic rings precontracted by AII; conditions: Aorta

Structure (SMILES) | IC50 [1] | inhibition in vivo at 3 mg/kg (Rattus norvegicus) | pIC50 (Oryctolagus cuniculus)
CCCCc1ccc(CN(Cc2ccccc2)C(=O)OC(C)(C)C)c(=O)n1Cc1ccc(-c2ccccc2-c2nn[nH]n2)cc1 | 20 nM | – | –
CCCCc1nc(Cl)c(CO)n1Cc1ccc(-c2ccccc2-c2nn[nH]n2)cc1 | – | 73.6% | 8.52
CCCCc1cccc(=O)n1Cc1ccc(-c2ccccc2-c2nn[nH]n2)cc1 | 18 nM | – | 8.40
CCCCc1ccc(CN(C)S(C)(=O)=O)c(=O)n1Cc1ccc(-c2ccccc2-c2nn[nH]n2)cc1 | 1.2 nM | 83.4% | 9.70
CCCCc1ccc(C)c(=O)n1Cc1ccc(-c2ccccc2-c2nn[nH]n2)cc1 | 6.1 nM | – | 8.15
CCCCc1ccc(CNC(=O)N(C)C)c(=O)n1Cc1ccc(-c2ccccc2-c2nn[nH]n2)cc1 | 2.9 nM | 28% | 8.70
CCCCc1ccc(CNS(=O)(=O)C(F)(F)F)c(=O)n1Cc1ccc(-c2ccccc2-c2nn[nH]n2)cc1 | 22 nM | – | –
CCCCc1ccc(CN(Cc2ccccc2)S(C)(=O)=O)c(=O)n1Cc1ccc(-c2ccccc2-c2nn[nH]n2)cc1 | 3.8 nM | 41.2% | 8.70
CCCCc1ccc(CNC(=O)NC2CCCCC2)c(=O)n1Cc1ccc(-c2ccccc2-c2nn[nH]n2)cc1 | 21 nM | 0% | 7.05
CCCCc1ccc(CNC(=O)Cc2ccccc2)c(=O)n1Cc1ccc(-c2ccccc2-c2nn[nH]n2)cc1 | 4.1 nM | – | –
CCCCc1ccc(CN(C)C(=O)N(C)C)c(=O)n1Cc1ccc(-c2ccccc2-c2nn[nH]n2)cc1 | 13 nM | – | –
CCCCc1ccc(CNC(=O)CCC)c(=O)n1Cc1ccc(-c2ccccc2-c2nn[nH]n2)cc1 | 5.7 nM | – | –
CCCCc1ccc(CN(Cc2ccccc2)S(=O)(=O)c2ccc(C)cc2)c(=O)n1Cc1ccc(-c2ccccc2-c2nn[nH]n2)cc1 | 16.5 nM | 36.6% | 7.22
CCCCc1ccc(CN(C(C)C)S(C)(=O)=O)c(=O)n1Cc1ccc(-c2ccccc2-c2nn[nH]n2)cc1 | 1.9 nM | 82.7% | 9.05
CCCCc1ccc(CNC(C)=O)c(=O)n1Cc1ccc(-c2ccccc2-c2nn[nH]n2)cc1 | 3.8 nM | 8.6% | 8.52
CCCCc1ccc(CN(Cc2ccccc2)C(C)=O)c(=O)n1Cc1ccc(-c2ccccc2-c2nn[nH]n2)cc1 | 2.8 nM | 76.3% | 9.00
CCCCc1ccc(CN(CC)S(C)(=O)=O)c(=O)n1Cc1ccc(-c2ccccc2-c2nn[nH]n2)cc1 | 3.5 nM | – | 8.70
CCCCc1ccc(C#N)c(=O)n1Cc1ccc(-c2ccccc2-c2nn[nH]n2)cc1 | 18 nM | – | –
CCCCc1ccc(CNC(=O)OC(C)(C)C)c(=O)n1Cc1ccc(-c2ccccc2-c2nn[nH]n2)cc1 | 6 nM | 68.9% | 8.00
CCCCc1ccc(CNCc2ccccc2)c(=O)n1Cc1ccc(-c2ccccc2-c2nn[nH]n2)cc1 | 1.5 nM | 12.4% | 9.00
CCCCc1ccc(CNS(=O)(=O)c2ccccc2)c(=O)n1Cc1ccc(-c2ccccc2-c2nn[nH]n2)cc1 | 4.1 nM | 25.2% | 8.15
CCCCc1ccc(CN(C)S(=O)(=O)c2ccc(C)cc2)c(=O)n1Cc1ccc(-c2ccccc2-c2nn[nH]n2)cc1 | 4.2 nM | – | 8.10
CCCCc1ccc(CNS(=O)(=O)c2ccc(C)cc2)c(=O)n1Cc1ccc(-c2ccccc2-c2nn[nH]n2)cc1 | 3.3 nM | – | 8.05
CCCCc1ccc(CN(C)S(=O)(=O)c2ccccc2)c(=O)n1Cc1ccc(-c2ccccc2-c2nn[nH]n2)cc1 | 4.2 nM | 68.7% | 8.70
CCCCc1ccc(CN(Cc2ccccc2)S(=O)(=O)c2ccccc2)c(=O)n1Cc1ccc(-c2ccccc2-c2nn[nH]n2)cc1 | 12 nM | 75.7% | 7.70
CCCCc1ccc(CNS(C)(=O)=O)c(=O)n1Cc1ccc(-c2ccccc2-c2nn[nH]n2)cc1 | 2.2 nM | 54.8% | 8.70
CCCCc1ccc(CN)c(=O)n1Cc1ccc(-c2ccccc2-c2nn[nH]n2)cc1 | 19 nM | 2.8% | 7.70
CCCCc1ccc(CNC(=O)N(CC)CC)c(=O)n1Cc1ccc(-c2ccccc2-c2nn[nH]n2)cc1 | 6.5 nM | – | –
CCCCc1ccc(CNC(=O)Nc2ccccc2)c(=O)n1Cc1ccc(-c2ccccc2-c2nn[nH]n2)cc1 | 18 nM | 0% | 7.52
CCCCNC(=O)NCc1ccc(CCCC)n(Cc2ccc(-c3ccccc3-c3nn[nH]n3)cc2)c1=O | 9 nM | 10.3% | 8.00
